Reference: PMC5324060, “Evolutionary, computational, and biochemical studies of the salicylaldehyde dehydrogenases in the naphthalene degradation pathway” (Scientific Reports, 2017)
Substitutions are numbered along the chain they refer to. Names may count otherwise. Like-named read-outs stand apart in the source and are kept apart here.

What was measured:
[1] = target: SALDan (Alteromonas naphthalenivorans, UniProt F5Z5S7); assay: Kinetics assay of wild-type recombinant SALDan (NADH appearance at 340 nm); assay type: biochemical; details: for App Vmax / App kcat / Km: aldehyde varied at NAD^+ 100 μM, enzyme 0.1 μM, for NAD^+: SAL fixed 50 μM; for Km: NAD^+ 0–500 μM, read-out: App Km
SALDan, sequence (F5Z5S7 entry or part of it): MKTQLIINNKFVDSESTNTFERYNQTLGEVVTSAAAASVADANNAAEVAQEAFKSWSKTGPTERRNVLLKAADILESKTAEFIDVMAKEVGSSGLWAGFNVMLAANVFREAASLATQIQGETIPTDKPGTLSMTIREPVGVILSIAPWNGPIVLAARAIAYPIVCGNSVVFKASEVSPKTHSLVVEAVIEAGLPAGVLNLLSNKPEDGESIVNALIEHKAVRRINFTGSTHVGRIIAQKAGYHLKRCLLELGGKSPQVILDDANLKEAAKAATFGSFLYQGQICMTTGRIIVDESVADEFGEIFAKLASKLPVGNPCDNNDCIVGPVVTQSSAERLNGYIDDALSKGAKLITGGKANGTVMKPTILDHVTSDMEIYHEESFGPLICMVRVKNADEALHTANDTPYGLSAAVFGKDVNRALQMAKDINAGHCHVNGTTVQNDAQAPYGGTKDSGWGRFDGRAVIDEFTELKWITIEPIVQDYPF
Procedure: (§1) The activity of the purified proteins was determined using SAL as a substrate. A reaction volume of 500 μL was prepared in a microfuge tube containing purified SALDan (0.1 μM), SAL (100 μM), and NAD^+ (100 μM) dissolved in 50 mM HEPES (pH 7.5) containing 150 mM NaCl. The SALDan activity was monitored as the rate of appearance of NADH at 340 nm spectrophotometrically. The specific activity of the enzyme (units.mg^−1.min^−1) was expressed as the amount of enzyme required to produce 1 μM of NADH under the assay conditions. The influence of pH on the activity was determined using the protocol described above, with the exception of replacing the […] buffer with 50 mM sodium acetate (pH 3.0–5.0), 50 mM 2-(N-morpholino)ethanesulfonic acid (pH 5.0–7.5), 50 mM HEPES (pH 8.0–8.5), 50 mM glycine (pH 9.0–10.0), or 50 mM sodium phosphate (pH 11.0)[52]. All assays were performed at the optimal temperature. To determine the influence of temperature on the enzymatic activity, the reactions were performed at 15, 20, 25, 30, 35, 40, and 45 °C, respectively.
(§2) For kinetic studies of aldehydes, the initial velocities of the enzymatic reactions were examined by varying the concentrations of various aromatic as well as aliphatic aldehydes in the presence of NAD^+ (100 μM) and the enzyme (0.1 μM) under optimal conditions. For substrates that absorb at 340 nm, thus interfering with the calculation of the initial rate, their molar coefficients (ε) were calculated as described previously[64] and are presented in Table S1. The apparent kinetic parameters were calculated using the equation: […]
(§3) The apparent kinetic parameters for NAD^+ were determined at a fixed concentration of SAL (50 μM) and a varying concentration of NAD^+ (0–500 μM). The apparent Km and Vmax values were calculated by using the equation: […]
(§4) All the activity data were determined by three separate experiments with at least three technical replicates.

[2] = target: T1, SALDan E175A (Alteromonas naphthalenivorans, UniProt F5Z5S7, E175A); assay: Kinetics assay of SALDan mutant E175A; assay type: biochemical; details: for change of apparent Km value / change of kcat/Km (catalytic efficiency): E175A mutant versus wild-type
T1 sequence (F5Z5S7 1-483 E175A): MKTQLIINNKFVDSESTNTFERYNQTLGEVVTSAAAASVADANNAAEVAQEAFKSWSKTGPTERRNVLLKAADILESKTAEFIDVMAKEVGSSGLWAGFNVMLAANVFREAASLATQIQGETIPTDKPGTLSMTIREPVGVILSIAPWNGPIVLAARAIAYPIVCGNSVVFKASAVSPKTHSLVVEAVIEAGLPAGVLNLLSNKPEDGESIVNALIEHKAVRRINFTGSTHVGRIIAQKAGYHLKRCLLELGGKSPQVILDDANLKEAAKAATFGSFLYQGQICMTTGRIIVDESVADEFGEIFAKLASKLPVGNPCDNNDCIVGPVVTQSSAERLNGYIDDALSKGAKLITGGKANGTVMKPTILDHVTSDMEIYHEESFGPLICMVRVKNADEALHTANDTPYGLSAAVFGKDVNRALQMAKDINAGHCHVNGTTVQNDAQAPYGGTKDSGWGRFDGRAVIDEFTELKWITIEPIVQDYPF
Source text: (§5) The primers used for the single amino acid mutant were as follows: N149A, forward primer, 5′-ATAGCACCGTGGGCCGGGCCTATTGTATTA-3′; reverse primer, 5′-TAATACAATAGGCCCGGCCCACGGTGCTAT-3′; V153A, forward primer, 5′-AATGGGCCTATTGTATTAGCGGCTCGG-3′; reverse primer, 5′-CCGAGCCGCTAATACAATAGGCCCATT-3′; E175A, forward primer, 5′-[…]-3′, reverse primer, 5′-GTTGGGACAGTCTTCCAGCCC-3′; E175A, forward primer, 5′-ATGCTCCACCAAATTGGGCAC-3′; reverse primer, 5′-TTTAGGACTTACTTCTGAAGCTTTAAA-3′. The PCR was performed using Pfu polymerase, and the cycling parameters were: 95 °C for 5 min (one cycle), 95 °C for 30 s, and 68 °C for 12 min (12 cycles). After amplification, the PCR mixture was digested with DpnI and then transformed into E. coli BL21(DE3) by electroporation. The mutants were confirmed by DNA sequencing.
as §1, §2, §3, §4

[3] = target: T2, SALDan V153A (Alteromonas naphthalenivorans, UniProt F5Z5S7, V153A); assay: Kinetics assay of SALDan mutant V153A; assay type: biochemical; details: for effect on the kinetic parameters: V153A mutant versus wild-type
T2 sequence (F5Z5S7 1-483 V153A): T1 sequence (F5Z5S7 1-483 E175A) with V153A, A175E
Source text: as §5
(§6) The activity of the purified proteins was determined using SAL as a substrate. […] The SALDan activity was monitored as the rate of appearance of NADH at 340 nm spectrophotometrically. The specific activity of the enzyme (units.mg^−1.min^−1) was expressed as the amount of enzyme required to produce 1 μM of NADH under the assay conditions. The influence of pH on the activity was determined using the protocol described above, with the exception of replacing the Tris-HCl buffer with 50 mM sodium acetate (pH 3.0–5.0), 50 mM 2-(N-morpholino)ethanesulfonic acid (pH 5.0–7.5), 50 mM HEPES (pH 8.0–8.5), 50 mM glycine (pH 9.0–10.0), or 50 mM sodium phosphate (pH 11.0)[52]. […]
as §2

[4] = target: T3, SALDan N149A (Alteromonas naphthalenivorans, UniProt F5Z5S7, N149A); assay: Kinetics assay of SALDan mutant N149A; assay type: biochemical
T3 sequence (F5Z5S7 1-483 N149A): T1 sequence (F5Z5S7 1-483 E175A) with N149A, A175E
Source text: as §5, with “After amplification, the PCR mixture was digested with DpnI and then transformed into E. coli BL21(DE3) by electroporation. The mutants were confirmed by DNA sequencing.” left out
as §6

[5] = substrate: O=Cc1ccccc1O; assay: Kinetics assay of SALDan mutant E175A; assay type: biochemical, Alteromonas naphthalenivorans; details: other: E175A mutant; SAL varied at NAD^+ 100 μM; NAD^+ varied at SAL 50 μM
Source text: as §5, §1, §2, §3, §4

[6] = substrate: NC(=O)c1ccc[n+]([C@@H]2O[C@H](COP(=O)([O-])OP(=O)(O)OC[C@H]3O[C@@H](n4cnc5c(N)ncnc54)[C@H](O)[C@@H]3O)[C@@H](O)[C@H]2O)c1; assay: Kinetics assay of SALDan mutant E175A; assay type: biochemical, Alteromonas naphthalenivorans; details: other: E175A mutant; SAL varied at NAD^+ 100 μM; NAD^+ varied at SAL 50 μM
Source text: as §5, §1, §2, §3, §4

[7] = substrate: O=Cc1ccccc1O; assay: Kinetics assay of SALDan mutant N149A; assay type: biochemical, Alteromonas naphthalenivorans; details: other: N149A mutant; SAL varied at NAD^+ 100 μM; NAD^+ varied at SAL 50 μM
Source text: as §5, §1, §2, §3, §4

[8] = substrate: NC(=O)c1ccc[n+]([C@@H]2O[C@H](COP(=O)([O-])OP(=O)(O)OC[C@H]3O[C@@H](n4cnc5c(N)ncnc54)[C@H](O)[C@@H]3O)[C@@H](O)[C@H]2O)c1; assay: Kinetics assay of SALDan mutant N149A; assay type: biochemical, Alteromonas naphthalenivorans; details: other: N149A mutant; SAL varied at NAD^+ 100 μM; NAD^+ varied at SAL 50 μM
Source text: as §5, §1, §2, §3, §4

[9] = substrate: O=Cc1ccccc1O; assay: Kinetics assay of SALDan mutant V153A; assay type: biochemical, Alteromonas naphthalenivorans; details: other: V153A mutant; SAL varied at NAD^+ 100 μM; NAD^+ varied at SAL 50 μM
Source text: as §5, §1, §2, §3, §4

[10] = substrate: NC(=O)c1ccc[n+]([C@@H]2O[C@H](COP(=O)([O-])OP(=O)(O)OC[C@H]3O[C@@H](n4cnc5c(N)ncnc54)[C@H](O)[C@@H]3O)[C@@H](O)[C@H]2O)c1; assay: Kinetics assay of SALDan mutant V153A; assay type: biochemical, Alteromonas naphthalenivorans; details: other: V153A mutant; SAL varied at NAD^+ 100 μM; NAD^+ varied at SAL 50 μM
Source text: as §5, §1, §2, §3, §4

[11] = wild-type, “—” means not observed, read-out: App Ki (substrate inhibition)

O=Cc1cccc(Cl)c1 [3-Chlorobenzaldehyde]
Ki [1, 11]: 124 ± 20.1 µM

CCCC=O [Butyraldehyde]
App Vmax ([1]; wild-type): 5.9 ± 1.0 U/mg | App kcat ([1]; wild-type): 14.3 ± 2.8 s⁻¹ | Km ([1]; wild-type): 3200 ± 235 µM

O=Cc1ccccc1O [Salicylaldehyde]
Ki [2]: 462 ± 51.4 µM | change of apparent Km value [2]: increased | change of kcat/Km (catalytic efficiency) [2]: decreased by six times | Ki [1]: 379 ± 45.2 µM | activity relative to the maximal velocity ([1]; wild-type, assayed at 200 μM substrate, substrate inhibition): approximately 80% | substrate concentration at which the highest velocity is achieved ([1]; wild-type, velocity versus substrate plot): 40 µM | Ki [3]: 428 ± 49.4 µM | effect on the kinetic parameters [3]: no significant effect | Ki [4]: 447 ± 52.6 µM | change of catalytic efficiency compared with the wild-type protein ([4]; N149A mutant): decreased by about three times

O=Cc1ccc(Cl)cc1 [4-Chlorobenzaldehyde]
Ki [1, 11]: 132 ± 18.9 µM

O=Cc1ccccc1 [Benzaldehyde]
Ki [1]: 563 ± 87.6 µM

O=Cc1ccc([N+](=O)[O-])cc1 [4-Nitrobenzaldehyde]
Ki [1, 11]: 266 ± 35.8 µM

O=Cc1ccccc1Cl [2-Chlorobenzaldehyde]
Ki [1]: 356 ± 40.1 µM

C=O [Formaldehyde]
App Vmax ([1]; wild-type): 3.3 ± 0.7 U/mg | App kcat ([1]; wild-type): 8.6 ± 2.2 s⁻¹ | Km ([1]; wild-type): 12400 ± 1820 µM

NC(=O)c1ccc[n+]([C@@H]2O[C@H](COP(=O)([O-])OP(=O)(O)OC[C@H]3O[C@@H](n4cnc5c(N)ncnc54)[C@H](O)[C@@H]3O)[C@@H](O)[C@H]2O)c1 [NAD^+, nicotinamide adenine dinucleotide]
change of apparent Km value [2]: increased by about two times | change of kcat/Km (catalytic efficiency) [2]: decreased by four times | increase of Km ([2]; mutation of Glu175 versus wild-type (Discussion)): 5 fold | effect on the kinetic parameters [3]: no significant effect

O=Cc1ccc2ccccc2c1 [2-Naphthaldehyde]
Ki [1, 11]: 249 ± 22.5 µM

B1: SALDan E175A (Alteromonas naphthalenivorans; E175A) (protein)
chain: T1 sequence (F5Z5S7 1-483 E175A)
Km [5]: 15.1 ± 2.6 µM | Vmax [5]: 32.3 µmol/min/mg | kcat [5]: 82.2 ± 10.1 s⁻¹ | kcat/Km [5]: 5.4e+06 ± 900000 M⁻¹ s⁻¹ | Km [6]: 105.6 ± 10.3 µM | Vmax [6]: 60.6 µmol/min/mg | kcat [6]: 158 ± 17.2 s⁻¹ | kcat/Km [6]: 1.5e+06 ± 400000 M⁻¹ s⁻¹

B2: SALDan N149A (Alteromonas naphthalenivorans; N149A) (protein)
chain: T1 sequence (F5Z5S7 1-483 E175A) with N149A, A175E
Km [7]: 9.5 ± 1.3 µM | Vmax [7]: 38.6 µmol/min/mg | kcat [7]: 100 ± 16.8 s⁻¹ | kcat/Km [7]: 1.06e+07 ± 1.3e+06 M⁻¹ s⁻¹ | Km [8]: 52.3 ± 6.1 µM | Vmax [8]: 83.5 µmol/min/mg | kcat [8]: 209 ± 25.6 s⁻¹ | kcat/Km [8]: 4e+06 ± 800000 M⁻¹ s⁻¹

B3: SALDan V153A (Alteromonas naphthalenivorans; V153A) (protein)
chain: T1 sequence (F5Z5S7 1-483 E175A) with V153A, A175E
Km [9]: 4.6 ± 0.7 µM | Vmax [9]: 59.5 µmol/min/mg | kcat [9]: 154 ± 20.4 s⁻¹ | kcat/Km [9]: 3.34e+07 ± 4.7e+06 M⁻¹ s⁻¹ | Km [10]: 44.9 ± 4.2 µM | Vmax [10]: 103 µmol/min/mg | kcat [10]: 254 ± 21.5 s⁻¹ | kcat/Km [10]: 5.7e+06 ± 500000 M⁻¹ s⁻¹
